Several values for one entry are separate records, joined by “and”; a condition that tells them apart may be missing. Identical values can stand only once.
System: Long Evans rats
Assay: Behavioral satiety sequence (BSS)
Format: in vivo, Long Evans rat
Settings: Compound I-19 0.3 mg/kg
Source text: The Behavioural Satiety Sequence (BSS) is a technique used to evaluate physiological satiety. It is based on the expression of a sequence of behaviors including eating, grooming, locomotor activity, followed by resting, which are typically observed in rodents post-ingestion (Halford et al, 1998, Pharmacology Biochemistry and Behaviour. 61(2): 159-168). The BSS is a widely used model for determining the effects of novel pharmaceuticals on food intake and measures of satiety in rodents (Oliveira et al, 2011, Revista de Nutrição. 24(4) 619-628), and to discriminate the cause of reduced food intake following pharmacological manipulation. For example, treatments that may reduce food intake by non-specific mechanisms, such as immobility, malaise, and taste adulteration, will disrupt this sequence (Halford et al, 1998, Pharmacology Biochemistry and Behaviour. 61(2): 159-168).
Specifically, 12 male Long-Evans rats were food-deprived for 22 h with a 2 h feeding period each day. Rats were trained to consume daily food during the 2 h period over 25 days. The testing phase was initiated once the rats consistently consumed 16-18 g of food per day with ≤10% variance in amount of feed consumed. Feeding took place in designated individual boxes in a quiet room separate from the housing room. Continuous remote monitoring via video camera during feeding was used to assess the BSS. Food consumption was measured by weighing the total available food before and after the 2 h feeding window, correcting for spillage. Lorcaserin (1 mg/kg) was included as a reference control (Higgins et al, 2011, Neuropsychopharmacology. 37(5): 1177-1191). Subjects were tested using a repeated-measures, Latin square design with 2-3 days wash-out between treatment cycles.
On scheduled test days, animals were monitored remotely via video camera during the feeding access period. The occurrence of four mutually exclusive behaviors (eating/drinking, grooming, active, rest) were individually scored. Over the 2 h feeding period, behaviors were assessed every 30 seconds. Scores were compiled into 23 5 min timebins (timebin 24 was removed due to early removal of animals) and the frequency of each behavior within each timebin was calculated to determine a temporal frequency of each measure (Rodgers et al, 2010, Pharmacology Biochemistry and Behaviour. 97: 3-14). Percentage time was plotted for each behavioral sequence in each timebin to compare between treatment groups (Higgins et al, 2011, Neuropsychopharmacology. 37(5): 1177-1191).

[1] = AVG of animals LT-1 to LT-12, 0-0.5 hours
[2] = raw data per animal LT-1 to LT-12, 0-0.5 hours
[3] = raw score per animal (LT-1 to LT-12)

## Clc1ccc(C2(OCC3OCCO3)c3ccccc3C3=NCCN32)cc1 (stereo not drawn) [Compound I-19]
AVG of animals LT-1 to LT-12
  BSS scoring G (grooming), Time Bin 19 (90-95 TOTAL), AVG: 0.05
  BSS scoring G (grooming), Time Bin 20 (95-100 TOTAL), AVG: 0.05
  BSS scoring G (grooming), Time Bin 21 (100-105 TOTAL), AVG: 0.02
  BSS scoring G (grooming), Time Bin 22 (105-110 TOTAL), AVG: 0.01
  BSS scoring G (grooming), Time Bin 23 (110-115 TOTAL), AVG: 0.05
  BSS scoring G (grooming), Time Bin 24 (115-120 TOTAL), AVG: 0.04
  BSS scoring R (resting), Time Bin 19 (90-95 TOTAL), AVG: 0.11
  BSS scoring R (resting), Time Bin 20 (95-100 TOTAL), AVG: 0.09
  BSS scoring R (resting), Time Bin 21 (100-105 TOTAL), AVG: 0.19
  BSS scoring R (resting), Time Bin 22 (105-110 TOTAL), AVG: 0.21
  BSS scoring R (resting), Time Bin 23 (110-115 TOTAL), AVG: 0.16
  BSS scoring R (resting), Time Bin 24 (115-120 TOTAL), AVG: 0.21
[1]
  BSS scoring A (active), Time Bin 1 (0-5 TOTAL), AVG: 0.09
  BSS scoring A (active), Time Bin 2 (5-10 TOTAL), AVG: 0.02
  BSS scoring A (active), Time Bin 3 (10-15 TOTAL), AVG: 0.03
  BSS scoring A (active), Time Bin 4 (15-20 TOTAL), AVG: 0.08
  BSS scoring A (active), Time Bin 5 (20-25 TOTAL), AVG: 0.07
  BSS scoring A (active), Time Bin 6 (25-30 TOTAL), AVG: 0.08
  BSS scoring E (eating/drinking), Time Bin 1 (0-5 TOTAL), AVG: 0.88
  BSS scoring E (eating/drinking), Time Bin 2 (5-10 TOTAL), AVG: 0.95
  BSS scoring E (eating/drinking), Time Bin 3 (10-15 TOTAL), AVG: 0.94
  BSS scoring E (eating/drinking), Time Bin 4 (15-20 TOTAL), AVG: 0.90
  BSS scoring E (eating/drinking), Time Bin 5 (20-25 TOTAL), AVG: 0.88
  BSS scoring E (eating/drinking), Time Bin 6 (25-30 TOTAL), AVG: 0.88
  BSS scoring G (grooming), Time Bin 1 (0-5 TOTAL), AVG: 0.03
  BSS scoring G (grooming), Time Bin 2 (5-10 TOTAL), AVG: 0.03
  BSS scoring G (grooming), Time Bin 3 (10-15 TOTAL), AVG: 0.03
  BSS scoring G (grooming), Time Bin 4 (15-20 TOTAL), AVG: 0.01
  BSS scoring G (grooming), Time Bin 5 (20-25 TOTAL), AVG: 0.03
  BSS scoring G (grooming), Time Bin 6 (25-30 TOTAL), AVG: 0.02
  BSS scoring R (resting), Time Bin 1 (0-5 TOTAL), AVG: 0.01
  BSS scoring R (resting), Time Bin 2 (5-10 TOTAL), AVG: 0.00
  BSS scoring R (resting), Time Bin 3 (10-15 TOTAL), AVG: 0.00
  BSS scoring R (resting), Time Bin 4 (15-20 TOTAL), AVG: 0.02
  BSS scoring R (resting), Time Bin 5 (20-25 TOTAL), AVG: 0.03
  BSS scoring R (resting), Time Bin 6 (25-30 TOTAL), AVG: 0.03
[2]
  BSS scoring A (active), Time Bin 1 (0-5 TOTAL): 1 (5×) and 0 (4×) and 2 (3×)
  BSS scoring A (active), Time Bin 2 (5-10 TOTAL): 0 (10×) and 1 (2×)
  BSS scoring A (active), Time Bin 3 (10-15 TOTAL): 0 (9×) and 2 and 1 (2×)
  BSS scoring A (active), Time Bin 4 (15-20 TOTAL): 0 (7×) and 1 (3×) and 2 and 4
  BSS scoring A (active), Time Bin 5 (20-25 TOTAL): 3 and 0 (7×) and 1 (3×) and 2
  BSS scoring A (active), Time Bin 6 (25-30 TOTAL): 1 (3×) and 0 (6×) and 2 (3×)
  BSS scoring E (eating/drinking), Time Bin 1 (0-5 TOTAL): 9 (6×) and 7 and 8 (3×) and 10 (2×)
  BSS scoring E (eating/drinking), Time Bin 2 (5-10 TOTAL): 9 (6×) and 10 (6×)
  BSS scoring E (eating/drinking), Time Bin 3 (10-15 TOTAL): 10 (6×) and 9 (5×) and 8
  BSS scoring E (eating/drinking), Time Bin 4 (15-20 TOTAL): 10 (4×) and 9 (6×) and 8 and 6
  BSS scoring E (eating/drinking), Time Bin 5 (20-25 TOTAL): 6 and 9 (6×) and 10 (3×) and 8 and 7
  BSS scoring E (eating/drinking), Time Bin 6 (25-30 TOTAL): 9 (2×) and 10 (5×) and 7 and 8 (3×) and 6
  BSS scoring G (grooming), Time Bin 1 (0-5 TOTAL): 0 (9×) and 1 (3×)
  BSS scoring G (grooming), Time Bin 2 (5-10 TOTAL): 1 (4×) and 0 (8×)
  BSS scoring G (grooming), Time Bin 3 (10-15 TOTAL): 0 (9×) and 1 (3×)
  BSS scoring G (grooming), Time Bin 4 (15-20 TOTAL): 0 (11×) and 1
  BSS scoring G (grooming), Time Bin 5 (20-25 TOTAL): 1 (4×) and 0 (8×)
  BSS scoring G (grooming), Time Bin 6 (25-30 TOTAL): 0 (10×) and 1 (2×)
  BSS scoring R (resting), Time Bin 1 (0-5 TOTAL): 0 (11×) and 1
  BSS scoring R (resting), Time Bin 2 (5-10 TOTAL): 0
  BSS scoring R (resting), Time Bin 3 (10-15 TOTAL): 0
  BSS scoring R (resting), Time Bin 4 (15-20 TOTAL): 0 (10×) and 1 (2×)
  BSS scoring R (resting), Time Bin 5 (20-25 TOTAL): 0 (10×) and 1 and 2
  BSS scoring R (resting), Time Bin 6 (25-30 TOTAL): 0 (10×) and 3 and 1
[3]
  BSS scoring A (active), Time Bin 19 (90-95 TOTAL): 0 (4×) and 5 (2×) and 2 (2×) and 6 and 3 and 1 (2×)
  BSS scoring A (active), Time Bin 20 (95-100 TOTAL): 3 (2×) and 2 (2×) and 0 (4×) and 1 (2×) and 4 (2×)
  BSS scoring A (active), Time Bin 21 (100-105 TOTAL): 0 (7×) and 1 (3×) and 2 (2×)
  BSS scoring A (active), Time Bin 22 (105-110 TOTAL): 0 (8×) and 4 and 1 and 2 (2×)
  BSS scoring A (active), Time Bin 23 (110-115 TOTAL): 4 (2×) and 3 and 1 and 0 (4×) and 6 (2×) and 2 and 7
  BSS scoring A (active), Time Bin 24 (115-120 TOTAL): 0 (6×) and 3 (2×) and 5 and 1 (2×) and 4
  BSS scoring E (eating/drinking), Time Bin 19 (90-95 TOTAL): 9 (5×) and 4 (2×) and 0 and 2 and 7 and 8 and 5
  BSS scoring E (eating/drinking), Time Bin 20 (95-100 TOTAL): 7 and 6 (2×) and 10 (3×) and 9 and 8 (2×) and 1 and 4 (2×)
  BSS scoring E (eating/drinking), Time Bin 21 (100-105 TOTAL): 10 (4×) and 9 (2×) and 6 and 7 and 0 and 8 and 5 and 4
  BSS scoring E (eating/drinking), Time Bin 22 (105-110 TOTAL): 10 (6×) and 0 (2×) and 3 and 7 and 8 and 5
  BSS scoring E (eating/drinking), Time Bin 23 (110-115 TOTAL): 5 (2×) and 6 and 9 (2×) and 1 (2×) and 4 (2×) and 0 and 8 and 10
  BSS scoring E (eating/drinking), Time Bin 24 (115-120 TOTAL): 0 (3×) and 6 (2×) and 10 and 4 (2×) and 2 and 8 (2×) and 5
  BSS scoring G (grooming), Time Bin 19 (90-95 TOTAL): 0 (8×) and 1 (3×) and 3
  BSS scoring G (grooming), Time Bin 20 (95-100 TOTAL): 0 (8×) and 1 (2×) and 2 (2×)
  BSS scoring G (grooming), Time Bin 21 (100-105 TOTAL): 0 (10×) and 1 (2×)
